Assay results reported in patent US11427604B2 (Mindset Pharma Inc., priority 2020, dated 2022).
Like-named read-outs stand apart in the source and are kept apart here.

Experiments:
[1] = target: human 5-HT2A (h5-HT2A) receptor (Homo sapiens (Human), UniProt P28223); experiment: FLIPR assay, human 5-HT2A receptor under agonist mode; assay type: cell-based
Procedure: I. Assessment of the Activated Effect of Compounds of Formula I Targeting on Human 5-HT2A (h5-HT2A) Receptor Under Agonist Mode
1. Culture the cells in cell culture medium (DMEM containing 10% FBS, 1× penicillin-streptomycin 300 μg/ml G418 and 100 μg/ml hygromycin B) at 37° C., 5% (v/v) CO2.
2. One day before the assays, detach the cell using TrypLE™ Express and count cells using cell counter.
3. Seed 20000 cells/well in 30 μl/well culture medium to a 384-well cell plate and incubate the cells overnight at 37° C., 5% (v/v) C02.
4. On the assay day, prepare 2× dye solution following the manual of the FLIPR® Calcium 6 Assay Kit: i. Dilute the dye with assay buffer (20 mM HEPES in 1×HBSS, PH7.4); ii. Add probenecid to the final concentration of 5 mM; iii. Vortex vigorously for 1-2 minutes.
5. Remove medium from cell plate by flicking the cell plate on towel papers.
6. Add 10 μl of assay buffer and 10 μl of 2× dye solution to each well of the cell plate.
7. Put the cell plate on plate shaker, agitate the plate at 600 rpm for 2 minutes. Incubate the plate at 37° C. for 2 hours followed by additional 15-minute incubation at 25° C.
8. Prepare 3× compound in assay buffer: a. Dilute reference compounds to required concentration with DMSO. Add the compounds to a 384-well compound plate; b. Perform serial dilutions; c. Add 10 mM test compounds to the compound plate, perform 3-fold serial dilutions. d. […] Add 20 μl/well assay buffer to the compound plate; f. Mix the plate on plate shaker for 2 mins;
i. The normalized fluorescence reading (RFU) is calculated as shown follow, while Fmax and Fmin stand for maximum and minimum of calcium signal during defined time window: RFU=Fmax−Fmin
ii. Calculate the percentage activation by using following equation: […]
iii. Calculate EC50 by fitting % activation against log of compound concentrations with Hill equation using XLfit.

human 5-HT2A receptor = human 5-HT2A receptor (Homo sapiens (Human), UniProt P28223); experiment: Radioligand binding assay ([3H]-ketanserin) on human 5-HT2A receptor
Procedure: i. Prepare the assay buffer following the table below;
ii. Preparation of 8 doses of reference and test compounds starting from 10 mM stock solution as requested by 5-fold serial dilutions with 100%;
iii. […] a. Add 50 μl/well of 0.5% (v/v) PEI to UniFilter-96 GF/B plates. Seal the plates and incubate at 4° C. for 3 hrs; b. After incubation, wash the plates 3 times with ice-cold wash buffer (50 mM Tris, pH7.4);
iv. Preparation of assay plates: a. Dilute cell membrane with assay buffer and add 330 μl/well to 96 round deep well plates to reach a concentration of 20 μg/well; b. Prepare 8 concentrations of reference or exemplary compounds of the application and add 110 μl/well to 96 round deep well plates; c. Dilute [3H]-ketanserin with assay buffer to 5 nM (5× final concentration) and add 110 μl/well to 96 round deep well plates.
v. Centrifuge the plate at 1000 rpm for 30 secs and then agitate at 600 rpm, R.T. for 5 min.
vi. Seal the plates and incubate the plate at 27° C. for 90 min.
vii. Stop the incubation by vacuum filtration onto GF/B filter plates followed by 4 times washing with ice-cold wash buffer (50 mM Tris, pH7.4).
ix. Seal the filter plates and add 40 μl/well of scintillation cocktail.
x. Read the plate by using a Microbeta2 microplate counter.
For reference and exemplary test compounds of the application, the results are expressed as % Inhibition, using the normalization equation: N=100−100×(U−C2)/(C1−C2), where U is the unknown value, C1 is the average of high controls, and C2 is the average of low controls. The IC50 is determined by fitting percentage of inhibition as a function of compound concentrations with Hill equation using XLfit.

[2] = Rat liver microsomes stability with NADPH
[3] = Human liver microsomes stability with NADPH
Procedure: (§1) The objective of this study was to estimate in vitro metabolic stability of 1-45 in pooled human and male mouse liver microsomes. The concentrations of exemplary compounds in reaction systems were evaluated by LC-MS/MS for estimating the stability in pooled human and male mouse liver microsomes. The in vitro intrinsic clearances of test compounds were determined as well.
(§2) A master solution in the “Incubation Plate” containing phosphate buffer, ultra-pure H2O, MgCl2 solution and liver microsomes was made according to Table --. The mixture was pre-warmed at 37° C. water bath for 5 minutes.
(§3) 40 μL of 10 mM NADPH solution was added to each well. The final concentration of NADPH was 1 mM. The negative control samples were prepared by replacing NADPH with 40 μL of ultra-pure H2O. Samples were prepared in duplicate. Negative controls were prepared in singlet.
(§4) The reaction was started with the addition of 4 μL of 200 μM test compounds or control compounds to each master solution to get the final concentration of 2 μM. This study was performed in duplicate.
(§5) Aliquots of 50 μL were taken from the reaction solution at 0, 15, 30, 45 and 60 minutes. The reaction solutions were stopped by the addition of 4 volumes of cold methanol with IS (100 nM alprazolam, 200 nM imipramine, 200 nM labetalol and 2 μM ketoprofen). Samples were centrifuged at 3,220 g for 40 minutes. Aliquot of 90 μL of the supernatant was mixed with 90 μL of ultra-pure H2O and then was used for LC-MS/MS analysis.
(§6) LC/MS analysis was performed for all samples from this study using a Shimadzu liquid chromatograph separation system equipped with degasser DGU-20A5R; solvent delivery unit LC-30AD; system controller SIL-30AC; column oven CTO-30A; CTC Analytics HTC PAL System. Mass spectrometric analysis was performed using an Triple Quad™ 5500 instrument.
(§7) All calculations were carried out using Microsoft Excel. Peak area ratios of test compound to internal standard (listed in the below table) were determined from extracted ion chromatograms.
(§8) All calculations were carried out using Microsoft Excel. Peak areas were determined from extracted ion chromatograms. The slope value, k, was determined by linear regression of the natural logarithm of the remaining percentage of the parent drug vs. incubation time curve.
(§9) Conversion of the in vitro t1/2 (min) into the in vitro intrinsic clearance (in vitro CLint, in μL/min/mg proteins) was done using the following equation (mean of duplicate determinations):
(§10) [formula] […] Results & Discussion

[4] = Mouse liver microsomes stability with NADPH
Procedure: as §1, §2, §3, §4, §5, §6, §7, §8, §9, §10

[5] = cited from earlier work

In the case of `[2H]C([2H])([2H])N(C([2H])([2H])[2H])C([2H])([2H])C([2H])([2H])c1c[nH]c2cccc(OP(=O)(O)O)c12` [Compound I-3, 3-(2-(bis(methyl-d3)amino)ethyl-1,1,2,2-d4)-1H-indol-4-yl dihydrogen phosphate], the EC50 [1] is reported as 1000 to 10000 nM and the IC50 (human 5-HT2A receptor) is reported as 500 to 5000 nM.

Compound `[2H]C([2H])([2H])N(C([2H])([2H])[2H])C([2H])([2H])C([2H])([2H])c1c[nH]c2cccc(F)c12` [Compound I-43, 2-(4-fluoro-1H-indol-3-yl)-N,N-bis(methyl-d3)ethan-1-amine-1,1,2,2-d4] has an EC50 [1] of under 1000 nM and an IC50 (human 5-HT2A receptor) of under 500 nM.

In the case of `[2H]C([2H])([2H])N(C([2H])([2H])[2H])C([2H])([2H])C([2H])([2H])c1c[nH]c2cccc(OC)c12` [Compound I-44, 2-(4-methoxy-1H-indol-3-yl)-N,N-bis(methyl-d3)ethan-1-amine-1,1,2,2-d4], the EC50 [1] is reported as under 1000 nM and the IC50 (human 5-HT2A receptor) is reported as under 500 nM.

With `CN(C)CCc1c[nH]c2cccc(O)c12` [Psilocin, 4-hydroxy-N,N-dimethyltryptamine, reference compound] the “Remaining Percentage (%) after 60 min” value ([2]; Rat, with NADPH, 2 μM) was 62.68%, the half-life at 2 μM ([2]; rat, microsomes) was 89 min and the microsomal CLint at 2 μM ([2]; rat, microsomes) was 15.6 µL/min/mg. The “Remaining Percentage (%) after 60 min” value ([3]; Human, with NADPH, 2 μM) was 70.16%, the half-life at 2 μM ([3]; human, microsomes) was 117 min and the microsomal CLint at 2 μM ([3]; human, microsomes) was 11.8 µL/min/mg. For the same compound, the “Remaining Percentage (%) after 60 min” value ([4]; Mouse, with NADPH, 2 μM) was 96.89%, the half-life at 2 μM ([4]; male, mouse, microsomes) was 142 min and the microsomal CLint at 2 μM ([4]; male, mouse, microsomes) was 9.78 µL/min/mg.

For `CN(C)CCc1c[nH]c2cccc(OP(=O)(O)O)c12` [psilocybin, 4-phosphoryloxy-N,N-dimethyltrypatmine], the abstinence rate ([5]; 12 months follow-up) is given as 67% and the abstinence rate ([5]; six months follow-up) is given as 80%.
